The test system of one experiment is S. aureus ATCC 29213. The experiment can be described thus: Antimicrobial activity, tube dilution method. Conditions: four repeated experiments; for MIC: 24 h at 37 °C; for MBC: kills 99.9% or more. Type of experiment: cell-based, Staphylococcus aureus. On the procedure: (§1) Antimicrobial activity was measured via the tube dilution method as described previously. Briefly, E. coli, S. aureus, S. enteritidis and L. monocytogenes were cultured in Mueller-Hinton broth for 24 h at 37 °C. A microorganism suspension of 10^6 cfu mL^−1 (cfu, colony forming units) was prepared from each culture. IL solutions (31.3–1500 mM) were prepared with sterilized Mueller-Hinton broth, and then were sterilized by filtration (0.45 µm pore-diameter membrane). The various permutations of microorganism suspension (50 µL) and IL solution (50 µL) were mixed in 96-well microtiter plate. Growth of the microorganisms was determined visually after incubation for 24 h at 37 °C. Controls were conducted under the same conditions: negative controls without microorganisms and positive controls without ILs. The lowest concentration at which there was no visible growth (turbidity) was taken as the minimal inhibitory concentration (MIC). Samples of 20 µL from each well were spread onto Mueller-Hinton agar medium with inactivates (0.3% lecithin, 3% polysorbate 80 and 0.1% L-cysteine) and incubated for 48 h at 37 °C. The lowest concentration of the IL that killed 99.9% or more of the test bacterium was taken as the minimum biocidal concentration (MBC).

For another experiment, the system named is E. coli ATCC 8739. The experiment can be described thus: Antimicrobial activity, tube dilution method. It counts as cell-based, Escherichia coli. Conditions: four repeated experiments; for MIC: 24 h at 37 °C; for MBC: kills 99.9% or more. On the procedure: as §1
In experiment [1] the test system is S. enteritidis ATCC 14128. Nature of the experiment: Antimicrobial activity, tube dilution method. It counts as cell-based, Salmonella enteritidis. Conditions: four repeated experiments; for MIC: 24 h at 37 °C; for MBC: kills 99.9% or more. On the procedure:
as §1

The subject of experiment [2] is L. monocytogenes ATCC 19115. Nature of the experiment: Antimicrobial activity, tube dilution method. Type of experiment: cell-based, Listeria monocytogenes. The following applies: four repeated experiments; for MIC: 24 h at 37 °C; for MBC: kills 99.9% or more. On the procedure:
as §1

The target in experiment [3] is T1, AChE type VI-S (from the electric eel) (Electrophorus electricus, UniProt O42275).
T1 construct: purchased Sigma–Aldrich, USA type VI-S (catalogue number not given)
Nature of the experiment: AChE inhibition assay (colorimetric, DTNB reduction). The following applies: DTNB 0.5 mM, AChE 0.05 U mL^−1, acetylthiocholine iodide 0.5 mM, 37 °C, phosphate buffer pH 8.0; mean ± SD; read-out: EC50±SD (toxicity toward AChE). Type of experiment: biochemical. On the procedure:
A colorimetric assay based on reduction of DTNB was used to measure AChE inhibition as described previously, [24], in the presence of a phosphate buffer system in order to eliminate the effects of pH changes on enzyme activity. Briefly, IL solutions were prepared with 0.2 M phosphate buffer (pH 8.0) in 96-well microtiter plates. The enzyme (0.2 U mL^−1, plus 0.25 mg mL^−1 bovine serum albumin in the same phosphate buffer), and DTNB (2 mM, plus 0.185 mg mL^−1 NaHCO3 in the same phosphate buffer) were added to each well and kept at 37 °C for 5 min, and then the reaction was initiated by adding acetylthiocholine iodide (2 mM in the same phosphate buffer). In the experimental reactions, the final concentrations of DTNB, acetylthiocholine iodide and AChE were 0.5 mM, 0.5 mM and 0.05 U mL^−1, respectively. Except where stated otherwise, the concentration range used to calculate EC50 of the [Ch][AA] ILs was 0–50 mM. However, for strongly alkaline [Ch][AA] ILs such as [Ch][Lys], the maximum concentration used was 20 mM in order to avoid changes in enzyme activity due to pH changes that would be caused if the IL exceeded the buffering capacity of the phosphate buffer. Acidic amino acid-derived ILs ([Ch][Asp] and [Ch][Glu]) were used up to 80 mM. The control compounds cholinium chloride ([Ch][Cl]), [Bmim][BF4] and acetone were used at concentration ranges of 0–80 mM, 0–50 mM and 10 mM–2.5 M, respectively. Control experiments without enzyme were carried out under otherwise identical conditions. Reduction of DTNB was monitored at 405 nm and at 10 second intervals in a microplate reader (Wallac 1420 VICTOR3, PerkinElmer, Singapore) over a period of 5 min. Enzyme activity was expressed as ΔOD min^−1 obtained via linear regression analysis. All assays were performed at least in triplicate.
All data were analyzed by One-Way analysis of variance using SPSS 11.5 (SPSS Inc., USA). EC50 values are presented as mean ± standard deviation (SD) from at least three repeats, and confidence intervals (α = 0.05) of EC50 are also presented. The One-Way ANOVA was used to judge if the difference between the different ILs groups was significant. When the p value was<0.05, the difference was considered to be significant.

Values after ≈ are worked out from the molar mass of the structure shown.

T1 sequence (O42275 24-633): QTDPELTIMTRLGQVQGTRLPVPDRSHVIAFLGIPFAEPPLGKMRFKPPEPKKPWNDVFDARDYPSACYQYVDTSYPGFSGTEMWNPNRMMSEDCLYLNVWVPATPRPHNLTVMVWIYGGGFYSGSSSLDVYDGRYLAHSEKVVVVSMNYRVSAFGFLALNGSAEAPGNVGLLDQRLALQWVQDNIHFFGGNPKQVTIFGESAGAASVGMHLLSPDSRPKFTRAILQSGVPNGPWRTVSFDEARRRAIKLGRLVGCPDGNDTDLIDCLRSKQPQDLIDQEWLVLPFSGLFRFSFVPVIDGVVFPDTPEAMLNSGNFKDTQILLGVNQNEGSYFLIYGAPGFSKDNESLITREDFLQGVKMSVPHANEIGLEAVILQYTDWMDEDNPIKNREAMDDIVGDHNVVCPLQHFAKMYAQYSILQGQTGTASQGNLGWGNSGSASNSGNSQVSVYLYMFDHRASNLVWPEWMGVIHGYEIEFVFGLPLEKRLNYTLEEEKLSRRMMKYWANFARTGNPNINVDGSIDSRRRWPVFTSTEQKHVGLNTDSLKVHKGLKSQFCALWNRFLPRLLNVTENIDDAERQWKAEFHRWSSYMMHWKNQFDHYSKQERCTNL

On to `C[N+](C)(C)CCO.N[C@@H](CCC(=O)O)C(=O)[O-]` [[Ch][Glu]], for which the MIC (usually the smallest concentration in the dilution series that meets the test's criterion for growth inhibition) in the experiment with S. aureus ATCC 29213 is recorded as 750 mM; in the experiment on E. coli ATCC 8739 it was 500 mM; in experiment [1] it was 125 mM; in experiment [2], 500 mM. Also, the MBC – broadly, the smallest concentration meeting the test's criterion for killing – against S. aureus ATCC 29213 amounted to 750 mM; in the experiment with E. coli ATCC 8739, 750 mM; in experiment [1] it was 188 mM; in experiment [2] it was 750 mM. In addition, the EC50 (commonly the concentration that produces a half-maximal response) in experiment [3] was found to be 3.72 ± 0.07 mM.

As for `C[N+](C)(C)CCO.N[C@@H](Cc1c[nH]c2ccccc12)C(=O)[O-]` [[Ch][Trp]], the MIC with S. aureus ATCC 29213 turned out to be 46.9 mM; in the experiment with E. coli ATCC 8739, 23.4 mM; in experiment [1], 23.4 mM; in experiment [2], 31.3 mM. The MBC in the experiment on S. aureus ATCC 29213 is 62.5 mM; against E. coli ATCC 8739 it was 31.3 mM; in experiment [1], 31.3 mM; in experiment [2], 46.9 mM. Besides, the EC50 in experiment [3] was found to be 2.45 ± 0.02 mM.

As to `CCC(C)C(N)C(=O)[O-].C[N+](C)(C)CCO` (stereo not drawn) [[Ch][Ile]], the MIC came to 93.8 mM in the experiment on S. aureus ATCC 29213, 46.9 mM against E. coli ATCC 8739, 46.9 mM in experiment [1] and 46.9 mM in experiment [2]. Also, the MBC in the experiment on S. aureus ATCC 29213 was found to be 125 mM; against E. coli ATCC 8739 it was 62.5 mM; in experiment [1], 62.5 mM; in experiment [2] it was 62.5 mM. Besides, the EC50 in experiment [3] is 3.57 ± 0.07 mM.

On to `C[N+](C)(C)CCO.C[N+](C)(C)CCO.N[C@@H](CC(=O)[O-])C(=O)[O-]` [[Ch][Asp]], for which the MIC against S. aureus ATCC 29213 stood at 750 mM; against E. coli ATCC 8739, 500 mM; in experiment [1], 125 mM; in experiment [2], 500 mM. For the same compound, the MBC in the experiment with S. aureus ATCC 29213 is 750 mM; against E. coli ATCC 8739, 750 mM; in experiment [1] it was 188 mM; in experiment [2], 750 mM. Also, the EC50 in experiment [3] is 3.81 ± 0.09 mM.

Turning to `C[N+](C)(C)CCO.N[C@@H](Cc1ccccc1)C(=O)[O-]` [[Ch][Phe]], the MIC against S. aureus ATCC 29213 is listed as 62.5 mM; against E. coli ATCC 8739 it was 31.3 mM; in experiment [1], 31.3 mM; in experiment [2], 46.9 mM. Moreover, the MBC is 93.8 mM in the experiment on S. aureus ATCC 29213, 46.9 mM in the experiment on E. coli ATCC 8739, 46.9 mM in experiment [1] and 62.5 mM in experiment [2]. Further, in experiment [3], the EC50 amounted to 2.74 ± 0.1 mM.

Consider `CC(C)[C@H](N)C(=O)O` [[Ch][Val]], for which the MIC was found to be 93.8 mM (≈ 11000 µg/mL) in the experiment with S. aureus ATCC 29213, 46.9 mM (≈ 5490 µg/mL) against E. coli ATCC 8739, 46.9 mM (≈ 5490 µg/mL) in experiment [1] and 93.8 mM (≈ 11000 µg/mL) in experiment [2]. In addition, the MBC is on record as 125 mM (≈ 14600 µg/mL) in the experiment on S. aureus ATCC 29213, 62.5 mM (≈ 7320 µg/mL) in the experiment with E. coli ATCC 8739, 62.5 mM (≈ 7320 µg/mL) in experiment [1] and 125 mM (≈ 14600 µg/mL) in experiment [2]. The EC50 in experiment [3] turned out to be 3.06 ± 0.12 mM.

With `C[N+](C)(C)CCO.N=C(N)NCCC[C@H](N)C(=O)[O-]` [[Ch][Arg]], the MIC came to 93.8 mM against S. aureus ATCC 29213, 46.9 mM in the experiment with E. coli ATCC 8739, 46.9 mM in experiment [1] and 93.8 mM in experiment [2]. Moreover, the MBC against S. aureus ATCC 29213 worked out at 125 mM; in the experiment on E. coli ATCC 8739, 93.8 mM; in experiment [1], 62.5 mM; in experiment [2], 125 mM. Besides, the EC50 in experiment [3] was 3.67 ± 0.07 mM.
